# Data as given in patent US7799809B2, “Carboxamide compounds and their use as calpain inhibitors” (Abbott GmbH & Co. KG, priority 2006, dated 2010).
# Assays:
# cathepsin S = target: T1, cathepsin S (Homo sapiens, UniProt P25774); test: Cathepsin S enzyme inhibition in vitro (kinetic fluorescence assay); format: biochemical; conditions: recombinant human cathepsin S vs calpain I
# T1 construct: purchased Calbiochem 219343; host or cells: E. coli
# Protocol: (§1) The following solutions and buffers were employed: • HBS (for 40 ml): 800 μl M HEPES; 2.16 ml 100 mM KCl; 4.8 ml 1M NaCl; 3.59 ml 5% glucose; 60 μl μM MgSO4; 400 μl 100 mM Na pyruvate, 28.19 ml water; pH 7.2-7.5. • lysis buffer (for 20 ml): 400 μl M Tris pH 8.2; 2.74 ml 1M NaCl; 520 μl 0.5M EDTA; 2 ml 10% triton X-100; 0.8 ml (=1:25) CompletePlus (1 tablet/2 ml H2O); 200 μl 100 mM Pefabloc; 13.34 ml water, pH 8.2. • TBST (10×) (for 1 l): 100 mM Tris (12.1 g); 1.5M NaCl (87 g); 1% Tween 20 (10 g), adjusted to pH 8. I Enzyme Inhibition In Vitro: • Testing for blockade of the corresponding enzymic activities was carried out by means of kinetic fluorescence assays (excitation 390 nm, emission 460 nm). • Apparent Ki values were calculated from the experimentally determined IC50 values by the Cheng-Prussoff relation assuming a reversible competitive enzyme inhibition. The Km values of the substrates used under the assay conditions indicated above were: 90 μM (Z-Phe-Arg-AMC, cathepsin B), 10 μM (Z-Gly-Pro-Arg-AMC, cathepsin K), 2 μM (Z-Phe-Arg-AMC, cathepsin L), and 30 μM (Z-Val-Val-Arg-AMC, cathepsin S). • The indicated Ki values are averages of the inhibition constants calculated on the basis of 2 to 4 independent dose-effect plots.
# (§2) The following assays were used: • 1. Calpain I: • 20 nM calpain-I—isolated from human erythrocytes (Calbiochem #208713), 100 μM Suc-Leu-Tyr-AMC (Bachem #1-1355) as substrate in buffer with 62 mM imidazole, 0.3 mM CaCl2, 0.10% CHAPS, 0.05% BSA, 1 mM DTT at pH 7.3 and room temperature. • 2. Cathepsin B: • 0.25 nM cathepsin B—isolated from human liver (Calbiochem #219362), 100 μM Z-Phe-Arg-AMC (Bachem #I-1160) as substrate 50 mM MES, 2 mM EDTA, 0.05% Brij 35, 2.5 mM L-cysteine, pH 6.0, room temperature. • 3. Cathepsin K: • 3 nM cathepsin K—activated from recombinant human procathepsin K from E. coli (Calbiochem #342001), 10 μM Z-Gly-Pro-Arg-AMC (Biomol #P-142) as substrate in 50 mM MES, 2 mM EDTA, 0.05% Brij 35, 2.5 mM L-cysteine, pH 6.0, room temperature. • 4. Cathepsin L: • 1 nM cathepsin L—isolated from human liver (Calbiochem #219402), 2 μM Z-Phe-Arg-AMC (Bachem #1-1160) as substrate in 50 mM MES, 2 mM EDTA, 0.05% Brij 35, 2.5 mM L-cysteine, pH 6.0, room temperature. • 5. Cathepsin S: • 0.5 nM recombinant human cathepsin S from E. coli (Calbiochem #219343), 20 μM Z-Val-Val-Arg-AMC (Bachem #1-1540) as substrate in 50 mM MES, 2 mM EDTA, 0.05% Brij 35, 2.5 mM L-cysteine, pH 6.0, room temperature. • The results of the in vitro determination are indicated in Table 1. The following abbreviations are used in Table 1: • The “Calpain activity” column, ++ stands for a calpain Ki (Ki(calpain)) of ≦40 nM and + means: 40 nM<Ki(Calpain)≦100 nM. • The “Sel. cat. B” column indicates the Ki(cathepsin B)/Ki(calpain) ratio. In this connection, ++ means a Ki(cathepsin B)/Ki(calpain) ratio of ≧30 and + means 10≦Ki(cathepsin B)/Ki(calpain)<30. • The “Sel. cat. K” column indicates the Ki(cathepsin K)/Ki(calpain) ratio. In this connection, ++ means a Ki(cathepsin K)/Ki(calpain) ratio of ≧30 and + means 10≦Ki(cathepsin K)/Ki(calpain)<30. • The “Sel. cat. L” column indicates the Ki(cathepsin L)/Ki(calpain) ratio. In this connection, ++ means a Ki(cathepsin L)/Ki(calpain) ratio of ≧50 and + means 30≦Ki(cathepsin L)/Ki(calpain)<50. • The “Sel. cat. S” column indicates the Ki(cathepsin S)/Ki(calpain) ratio. In this connection, ++ means a Ki(cathepsin S)/Ki(calpain) ratio of ≧100 and + means 50≦Ki(cathepsin S)/Ki(calpain)<100.
# cathepsin L = target: T2, cathepsin L (Homo sapiens, UniProt P07711); test: Cathepsin L enzyme inhibition in vitro (kinetic fluorescence assay); format: biochemical; conditions: cathepsin L isolated from human liver vs calpain I
# T2 construct: cathepsin L—isolated from human liver (Calbiochem #219402); purchased Calbiochem 219402; host or cells: human liver (tissue-derived)
# T2 sequence (P07711 114-333): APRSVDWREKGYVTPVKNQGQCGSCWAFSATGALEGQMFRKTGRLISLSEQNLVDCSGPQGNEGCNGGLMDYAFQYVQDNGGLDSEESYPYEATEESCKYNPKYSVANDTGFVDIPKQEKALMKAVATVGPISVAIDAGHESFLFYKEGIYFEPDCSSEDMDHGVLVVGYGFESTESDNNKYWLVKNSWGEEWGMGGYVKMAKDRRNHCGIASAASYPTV
# Protocol: as §1, §2
# T1 sequence (P25774 115-331): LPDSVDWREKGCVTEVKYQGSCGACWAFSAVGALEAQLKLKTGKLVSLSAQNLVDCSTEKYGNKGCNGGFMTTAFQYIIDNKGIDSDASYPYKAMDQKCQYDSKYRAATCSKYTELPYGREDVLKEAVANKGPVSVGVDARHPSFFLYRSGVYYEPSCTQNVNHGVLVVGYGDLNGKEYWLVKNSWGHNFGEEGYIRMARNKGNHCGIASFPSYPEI
smiles,measurement,setting,value
"CS(=O)(=O)NCc1cn(-c2ncccc2C(=O)NC(Cc2ccccc2)C(=O)C(N)=O)nc1-c1ccc(F)cc1 (stereo not drawn) [Example 187, N-[3-Amino-2,3-dioxo-1-(phenylmethyl)propyl]-2-[3-(4-fluorophenyl)-4-{[(methylsulfonyl)amino]methyl}-1H-pyrazol-1-yl]pyridine-3-carboxamide]",Sel cat. S: Ki(cathepsin S)/Ki(calpain) ratio,cathepsin S,++ (++ means a Ki(cathepsin S)/Ki(calpain) ratio of ≧100)
same,Sel cat. L: Ki(cathepsin L)/Ki(calpain) ratio,cathepsin L,+ (+ means 30≦Ki(cathepsin L)/Ki(calpain)<50)
"CCCCC(NC(=O)c1cccnc1-n1cnc(-c2ccc(N3CCOCC3)cc2)c1)C(=O)C(N)=O.Cl (stereo not drawn) [Example 15, N-{1-[Amino(oxo)acetyl]pentyl}-2-[4-(4-morpholin-4-ylphenyl)-1H-imidazol-1-yl]nicotinamide hydrochloride]",Sel cat. S: Ki(cathepsin S)/Ki(calpain) ratio,cathepsin S,+ (+ means 50≦Ki(cathepsin S)/Ki(calpain)<100)
same,Sel cat. L: Ki(cathepsin L)/Ki(calpain) ratio,cathepsin L,++ (++ means a Ki(cathepsin L)/Ki(calpain) ratio of ≧50)
"NC(=O)C(=O)C(Cc1cccs1)NC(=O)c1cccnc1-n1ccc(-c2ccc(F)cc2)n1 (stereo not drawn) [Example 57, N-[3-Amino-2,3-dioxo-1-(2-thienylmethyl)propyl]-2-[3-(4-fluorophenyl)-1H-pyrazol-1-yl]nicotinamide]",Sel cat. S: Ki(cathepsin S)/Ki(calpain) ratio,cathepsin S,++ (++ means a Ki(cathepsin S)/Ki(calpain) ratio of ≧100)
same,Sel cat. L: Ki(cathepsin L)/Ki(calpain) ratio,cathepsin L,++ (++ means a Ki(cathepsin L)/Ki(calpain) ratio of ≧50)
"N#Cc1ccc(-c2ccn(-c3ncccc3C(=O)NC(Cc3ccccc3)C(=O)C(N)=O)n2)cc1 (stereo not drawn) [Example 62, N-(3-Amino-1-benzyl-2,3-dioxopropyl)-2-[3-(4-cyanophenyl)-1H-pyrazol-1-yl]nicotinamide]",Sel cat. S: Ki(cathepsin S)/Ki(calpain) ratio,cathepsin S,++ (++ means a Ki(cathepsin S)/Ki(calpain) ratio of ≧100)
same,Sel cat. L: Ki(cathepsin L)/Ki(calpain) ratio,cathepsin L,++ (++ means a Ki(cathepsin L)/Ki(calpain) ratio of ≧50)
"CCCCC(NC(=O)c1cccnc1-n1ccc(-c2cccc(N3CCOCC3)c2)n1)C(=O)C(N)=O (stereo not drawn) [Example 59, N-{1-[Amino(oxo)acetyl]pentyl}-2-[3-(3-morpholin-4-ylphenyl)-1H-pyrazol-1-yl]nicotinamide]",Sel cat. S: Ki(cathepsin S)/Ki(calpain) ratio,cathepsin S,+ (+ means 50≦Ki(cathepsin S)/Ki(calpain)<100)
same,Sel cat. L: Ki(cathepsin L)/Ki(calpain) ratio,cathepsin L,++ (++ means a Ki(cathepsin L)/Ki(calpain) ratio of ≧50)
"NC(=O)C(=O)C(Cc1ccccc1)NC(=O)c1cccnc1-n1ccc(-c2ccc(Cl)cc2)n1 (stereo not drawn) [Example 39, N-(3-Amino-1-benzyl-2,3-dioxopropyl)-2-[3-(4-chlorophenyl)-1H-pyrazol-1-yl]nicotinamide]",Sel cat. S: Ki(cathepsin S)/Ki(calpain) ratio,cathepsin S,++ (++ means a Ki(cathepsin S)/Ki(calpain) ratio of ≧100)
same,Sel cat. L: Ki(cathepsin L)/Ki(calpain) ratio,cathepsin L,++ (++ means a Ki(cathepsin L)/Ki(calpain) ratio of ≧50)
"COc1ccc(-c2cn(-c3ncccc3C(=O)NC(Cc3ccccc3)C(=O)C(N)=O)cn2)cc1 (stereo not drawn) [Example 13, N-(3-Amino-1-benzyl-2,3-dioxopropyl)-2-[4-(4-methoxyphenyl)-1H-imidazol-1-yl]nicotinamide]",Sel cat. S: Ki(cathepsin S)/Ki(calpain) ratio,cathepsin S,+ (+ means 50≦Ki(cathepsin S)/Ki(calpain)<100)
same,Sel cat. L: Ki(cathepsin L)/Ki(calpain) ratio,cathepsin L,++ (++ means a Ki(cathepsin L)/Ki(calpain) ratio of ≧50)
"NC(=O)C(=O)C(Cc1ccccc1)NC(=O)c1cccnc1-n1cc(COc2ccccc2)c(-c2ccc(F)cc2)n1 (stereo not drawn) [Example 179, N-[3-Amino-2,3-dioxo-1-(phenylmethyl)propyl]-2-{3-(4-fluorophenyl)-4-[(phenyloxy)methyl]-1H-pyrazol-1-yl}pyridine-3-carboxamide]",Sel cat. S: Ki(cathepsin S)/Ki(calpain) ratio,cathepsin S,++ (++ means a Ki(cathepsin S)/Ki(calpain) ratio of ≧100)
same,Sel cat. L: Ki(cathepsin L)/Ki(calpain) ratio,cathepsin L,+ (+ means 30≦Ki(cathepsin L)/Ki(calpain)<50)
"CCCCC(NC(=O)c1cccnc1-n1cnc(-c2ccc(C(F)(F)F)cc2)c1)C(=O)C(N)=O.Cl (stereo not drawn) [Example 17, N-{1-[Amino(oxo)acetyl]pentyl}-2-{4-[4-(trifluoromethyl)phenyl]-1H-imidazol-1-yl}nicotinamide hydrochloride]",Sel cat. S: Ki(cathepsin S)/Ki(calpain) ratio,cathepsin S,+ (+ means 50≦Ki(cathepsin S)/Ki(calpain)<100)
same,Sel cat. L: Ki(cathepsin L)/Ki(calpain) ratio,cathepsin L,++ (++ means a Ki(cathepsin L)/Ki(calpain) ratio of ≧50)
